# Reference: patent publication US6723703B2, “Therapeutic use of aerosolized S-nitrosoglutathione in cystic fibrosis” (Duke University, priority 2000, dated 2004)
# “Also recorded” adds a separate entry of the source.
# Key:
# [1] = test system: human CFTR protein bearing the ΔF508 mutation; experiment: Western blot of CFTR in CFPAC-1 cells treated with GSNO; format: cell-based
# Protocol: FIG. 1. […] Human pancreatic adenocarcinoma cells from a patient homozygous for ΔF508 (CFPAC-1) were grown to confluence and treated with medium alone (control) or 500 nM, 1 μM, 5 μM, 10 μM or 100 mM GSNO for 6 hours. The cells were harvested, lysed, resuspended in NP40 buffer and underwent Western Blot analysis with anti-CFTR antibody. […] Increased expression of the immature non-glycosylated protein (140 kDa) reflects decreased degradation of the immature protein in the endoplasma retimulum The appearance of a band at 180 kDa (mature protein) reflects maturation of the protein in the endoplasmic reticulum, an expression of a form capable of being expressed on the cell surface representative of three experiments. The full maturing of the protein accommodates for the ΔF508 mutation.
# patients with CF = experiment: Double-blind, placebo-controlled nebulized GSNO study in patients with CF; format: in vivo, human
# Protocol: FIG. 3. […] In a double-blind, placebo-controlled study, patients with CF received GSNO in 10 mM phosphate buffered saline (PBS) (n=9) or 10 mM PBS alone (n=11) by nebulizer. The two groups were matched with respect to age, vital signs, oxygen saturation, vital capacity, FEV1, and FEF25-75(p=7). Change in oxygen saturation from pretreatment baseline is recorded as a function of time. Results are shown in FIG. 3 where the continuous line represents the GSNO group and the line composed of dashes represents the PBS alone group. […] FIG. 4. Inhaled S-nitrosoglutathione cases increased expired nitric oxide (NO) concentration in CF. Data presented represent the two groups described in FIG. 3, but with respect to expired nitric oxide concentration (measured off-line with chemiluminescence in accordance with American Thoracic Society guidelines). Results are shown in FIG. 4 where the continuous line represents the GSNO group and the line composed of dashes represents the PBS alone group. […] Note that the change at 30 minutes is less pronounced than at 5 minutes, though improvement in oxygenation is as dramatic at 30 minutes as at 5 minutes. […] These S-nitrosylation reactions may be critically important to smooth muscle relaxation, antimicrobial effects and modification of ion channel function. FIGS. 5A, 5B, 5C, 5D, 5E and 5F. Inhaled S-nitrosoglutathione is well tolerated in CF patients.
# [2] = test system: ubiquitin proteosome pathway; experiment: Inhibition of the ubiquitin proteosome pathway (preliminary evidence); conditions: stabilizes expression of hypoxy inducible factor 1
# Text: Cystic fibrosis is caused by mutations in a membrane-associated chloride channel, the cystic fibrosis transmembrane regulatory protein (CFTR). The most common mutation, accounting for 70% of alleles, is a 3 base pair (single amino acid) deletion at the 508 position on the first ATP binding domain, the (ΔF508) mutation. This is referred to as a class II mutation in that intact and potentially functional protein is degraded in the endoplasm reticulum because of a small folding error. It is known that his degradation can be bypassed in vitro by hypothermia and by treatment with compounds,such as glycerol and phenylbutyrate. These treatments result in functional expression of (ΔF508) CFTR on the cell surface. It has recently been proposed that CFTR degradation in the endoplasmic reticulum (ER) is mediated by the ubiquitin-proteasome system.
# [3] = test system: human airway smooth muscle preparations; conditions: read-out: IC50 in relaxing human airway smooth muscle preparations; cited from earlier work
# [4] = cited from earlier work
# [5] = cells homozygous to the ΔF508 mutation, 100 μM GSNO
structure (smiles),measurement,setting,value
"N[C@@H](CCC(=O)N[C@@H](CSN=O)C(=O)NCC(=O)O)C(=O)O [GSNO, S-nitrosoglutathione]","stabilization and maturation of ΔF508 CFTR protein (Western blot, 140/160/180 kDa bands)","[1]; CFPAC-1 cells, 500 nM, 1 μM, 5 μM, 10 μM or 100 mM GSNO for 6 hours",stabilizes and allows maturation of human CFTR protein bearing the ΔF508 mutation
same,expression of CFTR,[1]; [5],increases the expression of CFTR
same,maturation of CFTR,[1]; [5],increases the maturation of CFTR
same,"tolerability (vital signs, lung function, systemic effects)","patients with CF; CF patients, inhaled 0.05 ml/kg of 10 mM GSNO",no acute change in vital signs or lung function was observed; also recorded: well tolerated in CF and has no adverse systemic affects
same,change in oxygen saturation from pretreatment baseline,"patients with CF; inhalation of 0.05 ml/kg of 10 mM GSNO by nebulizer vs PBS alone, p<0.001 by ANOVA",greater improvement in oxygen saturation than those in the PBS group; also recorded: improved oxygenation
same,inhibition of ubiquitin proteosome pathway,[2],inhibits the ubiquitin proteosome pathway
same,IC50,[3],~10 µM
same,stability at acid pH,[4],stable at acid pH
